In patent publication US7605154B2, “Substituted Thiazolo [4,5-d]pyrimidines as protein kinase inhibitors” (Janssen Pharmaceutica N.V., priority 2005, dated 2009):
Several values for one entry are separate records, joined by “and”; a condition that tells them apart may be missing. Equal entries are not always repeated.

What was measured:
EGFR = biological target: T1, EGFR (Homo sapiens, UniProt P00533); test: EGFR Kinase Assay; type: biochemical; details: for IC50: GST-EGFR, 5 μM ATP
T1 construct: started at nucleotide 2189 (corresponding to amino acid 667) and ended at the termination codon; made in house; host or cells: Sf9 insect cells (baculovirus)
Text: The portion was PCR amplified with primers that added the lambda attB sequences to each end, recombined into an entry vector, then into a, GST destination vector (as described in Gateway Technologies Manual by Invitrogen Corporation, Carlsbad, Calif.).
The destination vector was recombined in the DH10BAC strain of bacteria to produce a bacmid. The bacmid was transfected into Sf 9 cells and the supernatant containing the baculovirus was collected. The GSTEGFR protein was purified using large cultures of Sf 9 cells infected with stock virus. After an appropriate period of time, the cells were collected and lysed. The GSTEGFR was then purified from the lysate on Glutathione-Sepharose columns (as described by Amersham Biosciences, Buckinghamshire, United Kingdom).
The free biotin was separated from the biotinylated polyGluTyr on a gel filtration column.
A mixture of a 10× kinase buffer (500 mM Tris at pH 8.0, 100 mM Magnesium Chloride and 1 mM Sodium Vanadate), DTT (1 mM final from 500 mM stock), ATP (5 μM final from 10 mM stock), biotinylated polyGluTyr (10 μg/μL stock), γ-^33P ATP (10 μCi/μL stock) and water was added to each well (90 μL/well) of a Streptavidin Flashplate (Perkin Elmer, Wellesley, Mass.).
Test compound in 100% DMSO (2 μL) was added to the appropriate wells. Diluted GSTEGFR (1:300 dilution in 50 mM Tris at pH 8.0 and 0.1% bovine serum albumin) (10 μL) was added to the wells to initiate the reactions.
The plates were incubated at 30° C. for 1 hr with shaking. The reacted contents were removed and the plates were sequentially washed three times with a 1×PBS stop buffer (300 μL without Magnesium and Calcium) and 100 mM EDTA. After the final wash, the same stop buffer (200 μL) was added to the wells. The plates were then sealed and read on the TopCount scintillation counter.
Test compounds were assayed in triplicate at 16 concentrations at half-log dilutions starting at 200 uM. A maximum and minimum signal for the assay was determined on each plate. The percent inhibition of a test compound was calculated according to the formula
For a series of test concentrations, the IC50 was derived by graphing percent inhibition against the log of the concentrations tested for a given compound.

SK-OV-3 = SK-OV-3 Cell Migration Inhibition; type: cell-based; details: several values in a cell are repeat determinations
c-Src kinase = biological target: T2, c-Src kinase (Homo sapiens, UniProt P12931); test: c-Src Kinase Assay; type: biochemical; details: test concentration of 1 μM
T2 construct: purchased Upstate Biotechnology, Lake Placid, N.Y
Procedure: A mixure of a 10× kinase buffer (80 mM MOPS at pH 7.0, 2 mM EDTA and 100 mM Magnesium Chloride), ATP (5 μM final from a 10 mM stock), a Cdc2 peptide […] (100 μM final from a 2.5 mM stock), γ-^33P ATP (10 μCi/μL stock) and water (20 μL/well) was added to each well of a Streptavidin Flashplate.
Test compound in 100% DMSO (0.5 μL) was added to the appropriate wells. Diluted c-Src kinase (human) (Upstate Biotechnology, Lake Placid, N.Y.) (diluted in a buffer consisting of 20 mM MOPS at pH 7.0, 1 mM EDTA, β-mercaptoethanol (0.1%), Brij-35 (0.01%), glycerol (5%), and 1 mg/mL bovine serum albumin) (2.5 μL) was added to the wells to initiate the reactions. The reaction plates were incubated at 30° C. for 40 min. The reaction was terminated by the addition of a 3% phosphoric acid solution (5 μL). The reaction product (10 μL) was spotted onto a P30 filtermat and washed for 5 minutes in phosphoric acid (75 mM). The wash sequence was repeated two more times, followed with one final wash in methanol. The plates were then dried, sealed and read on the TopCount scintillation counter after adding 30 μL scintillation fluid.
Percent inhibition was derived according to the procedure described in Example 5. The results for those compounds tested are shown in Table 2 at a test concentration of 1 μM.

[1] = Homo sapiens, SK-OV-3, SK-OV-3 migration

T1 sequence (P00533 667-1210 limits assumed): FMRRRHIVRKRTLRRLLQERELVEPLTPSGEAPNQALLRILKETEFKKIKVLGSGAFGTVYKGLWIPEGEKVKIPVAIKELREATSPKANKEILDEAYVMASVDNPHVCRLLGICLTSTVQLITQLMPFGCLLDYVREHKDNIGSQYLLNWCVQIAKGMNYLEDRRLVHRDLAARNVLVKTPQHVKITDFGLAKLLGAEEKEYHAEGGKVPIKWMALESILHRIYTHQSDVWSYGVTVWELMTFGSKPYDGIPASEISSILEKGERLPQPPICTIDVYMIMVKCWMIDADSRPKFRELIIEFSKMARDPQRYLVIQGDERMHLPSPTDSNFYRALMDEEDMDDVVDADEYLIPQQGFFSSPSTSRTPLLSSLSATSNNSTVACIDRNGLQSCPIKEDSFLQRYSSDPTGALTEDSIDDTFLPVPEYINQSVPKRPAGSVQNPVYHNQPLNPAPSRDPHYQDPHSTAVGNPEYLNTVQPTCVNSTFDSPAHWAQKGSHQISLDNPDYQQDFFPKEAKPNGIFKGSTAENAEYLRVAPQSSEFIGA
T2 sequence (P12931 whole entry): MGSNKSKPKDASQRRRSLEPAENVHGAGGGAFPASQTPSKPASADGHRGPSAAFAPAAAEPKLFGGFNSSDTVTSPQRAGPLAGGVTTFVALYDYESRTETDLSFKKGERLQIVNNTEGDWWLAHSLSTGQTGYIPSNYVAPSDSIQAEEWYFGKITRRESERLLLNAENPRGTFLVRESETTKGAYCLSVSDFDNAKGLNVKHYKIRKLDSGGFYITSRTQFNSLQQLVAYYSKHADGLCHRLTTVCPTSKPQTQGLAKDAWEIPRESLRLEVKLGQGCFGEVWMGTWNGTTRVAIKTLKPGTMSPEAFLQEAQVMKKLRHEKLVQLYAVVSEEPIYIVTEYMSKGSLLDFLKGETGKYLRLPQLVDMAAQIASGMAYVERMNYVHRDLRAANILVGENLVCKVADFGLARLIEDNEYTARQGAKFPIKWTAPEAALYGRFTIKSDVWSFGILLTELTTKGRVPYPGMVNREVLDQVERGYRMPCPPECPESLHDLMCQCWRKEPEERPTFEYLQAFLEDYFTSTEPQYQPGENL

Compound	IC50 (EGFR) [nM]	further results
Fc1ccc(Nc2ncnc3nc(Nc4ccc(CCN5CCOCC5)cc4)sc23)cc1Cl [Cpd 4, N^7-(3-chloro-4-fluoro-phenyl)-N^2-[4-(2-morpholin-4-yl-ethyl)-phenyl]-thiazolo[4,5-d]pyrimidine-2,7-diamine]	21.7	IC50 (SK-OV-3; [1]): 735 nM; IC50 (SK-OV-3; SK-OV-3 migration): 520 nM
CN(C)CCCNS(=O)(=O)c1ccc(Nc2nc3ncnc(Nc4ccc(F)c(Cl)c4)c3s2)cc1 [Cpd 31, 4-[7-(3-chloro-4-fluoro-phenylamino)-thiazolo[4,5-d]pyrimidin-2-ylamino]-N-(3-dimethylamino-propyl)-benzenesulfonamide]	10.3	IC50 (SK-OV-3; [1]): 138 nM; IC50 (SK-OV-3; SK-OV-3 migration): 180 nM and 191 nM
COCCN(CCOC)S(=O)(=O)c1ccc(Nc2nc3ncnc(Nc4ccc(F)c(Cl)c4)c3s2)cc1 [Cpd 32, 4-[7-(3-chloro-4-fluoro-phenylamino)-thiazolo[4,5-d]pyrimidin-2-ylamino]-N,N-bis-(2-methoxy-ethyl)-benzenesulfonamide]	20.8	IC50 (SK-OV-3; [1]): > 5000 nM
C#Cc1cccc(Nc2ncnc3nc(Nc4ccc(S(=O)(=O)N(CCOC)CCOC)cc4)sc23)c1 [Cpd 33, 4-[7-(3-ethynyl-phenylamino)-thiazolo[4,5-d]pyrimidin-2-ylamino]-N,N-bis-(2-methoxy-ethyl)-benzenesulfonamide]	25.3	IC50 (SK-OV-3; [1]): 252 nM
COCCN(CCOC)Cc1ccc(Nc2nc3ncnc(Nc4ccc(F)c(Cl)c4)c3s2)cc1 [Cpd 34, N^2-(4-{[bis-(2-methoxy-ethyl)-amino]-methyl}-phenyl)-N^7-(3-chloro-4-fluoro-phenyl)-thiazolo[4,5-d]pyrimidine-2,7-diamine]	6.4	IC50 (SK-OV-3; [1]): 210 nM
C#Cc1cccc(Nc2ncnc3nc(Nc4ccc(CN5CCOCC5)cc4)sc23)c1 [Cpd 35, N^7-(3-ethynyl-phenyl)-N^2-(4-morpholin-4-ylmethyl-phenyl)-thiazolo[4,5-d]pyrimidine-2,7-diamine]	30	IC50 (SK-OV-3; [1]): 474 nM; IC50 (SK-OV-3; SK-OV-3 migration): 380 nM
C#Cc1cccc(Nc2ncnc3nc(Nc4ccc(NCCCN5CCOCC5)nc4)sc23)c1 [Cpd 72, N^7-(3-ethynyl-phenyl)-N^2-[6-(3-morpholin-4-yl-propylamino)-pyridin-3-yl]-thiazolo[4,5-d]pyrimidine-2,7-diamine]	28.2	–
NS(=O)(=O)c1ccc(Nc2nc3ncnc(Nc4ccc(F)c(Cl)c4)c3s2)cc1 [Cpd 73, 4-[7-(3-chloro-4-fluoro-phenylamino)-thiazolo[4,5-d]pyrimidin-2-ylamino]-benzenesulfonamnide]	–	inhibition at 1 µM (c-Src kinase): 65%
NS(=O)(=O)c1ccc(Nc2nc3ncnc(Nc4cccc(Cl)c4)c3s2)cc1 [Cpd 74, 4-[7-(3-chloro-phenylamino)-thiazolo[4,5-d]pyrimidin-2-ylamno]-benzenesulfonamide]	6.6	–
NS(=O)(=O)c1ccc(Nc2nc3ncnc(Nc4c(F)cccc4F)c3s2)cc1 [Cpd 75, 4-[7-(2,6-difluoro-phenylamino)-thiazolo[4,5-d]pyrimidin-2-ylamino]-benzenesulfonamide]	187	–
NS(=O)(=O)c1ccc(Nc2nc3ncnc(Nc4ccc(Cl)cc4F)c3s2)cc1 [Cpd 76, 4-[7-(4-chloro-2-fluoro-phenylamino)-thiazolo[4,5-d]pyrimidin-2-ylamino]-benzenesulfonamide]	40.2	–
NS(=O)(=O)c1ccc(Nc2nc3ncnc(Nc4ccc(Br)cc4F)c3s2)cc1 [Cpd 77, 4-[7-(4-bromo-2-fluoro-phenylamino)-thiazolo[4,5-d]pyrimidin-2-ylamino]-benzenesulfonamide]	87	–
NS(=O)(=O)c1ccc(Nc2nc3ncnc(Nc4cccc(Br)c4)c3s2)cc1 [Cpd 78, 4-[7-(3-bromo-phenylamino)-thiazolo[4,5-d]pyrimidin-2-ylamino]-benzenesulfonamide]	10.5	–
Cc1cccc(Nc2ncnc3nc(Nc4ccc(S(N)(=O)=O)cc4)sc23)c1 [Cpd 79, 4-[7-(3-methyl-phenylamino)-thiazolo[4,5-d]pyrimidin-2-ylamino]-benzenesulfonamide]	14.3	–
NS(=O)(=O)c1ccc(Nc2nc3ncnc(Nc4ccccc4)c3s2)cc1 [Cpd 80, 4-[7-(phenylamino)-thiazolo[4,5-d]pyrimidin-2-ylamino]-benzenesulfonamide]	82.5	–
NS(=O)(=O)c1ccc(Nc2nc3ncnc(Nc4cc(Cl)cc(Cl)c4)c3s2)cc1 [Cpd 81, 4-[7-(3,5-dichloro-phenylamino)-thiazolo[4,5-d]pyrimidin-2-ylamino]-benzenesulfonamide]	116	–
NS(=O)(=O)c1ccc(Nc2nc3ncnc(Nc4ccc(Br)c(Cl)c4)c3s2)cc1 [Cpd 82, 4-[7-(4-bromo-3-chloro-phenylamino)-thiazolo[4,5-d]pyrimidin-2-ylamino]-benzenesulfonamide]	5	–
NS(=O)(=O)c1ccc(Nc2nc3ncnc(Nc4ccc(N5CCOCC5)c(Cl)c4)c3s2)cc1 [Cpd 83, 4-[7-(3-chloro-4-(morpholin-4-yl)-phenylamino)-thiazolo[4,5-d]pyrimidin-2-ylamino]-benzenesulfonamide]	3800	–
NS(=O)(=O)c1ccc(Nc2nc3ncnc(Nc4cccc(CN5CCOCC5)c4)c3s2)cc1 [Cpd 84, 4-[7-(3-(morpholin-4-yl)methyl-phenylamino)-thiazolo[4,5-d]pyrimidin-2-ylamino]-benzenesulfonamide]	3300	–
NS(=O)(=O)c1ccc(Nc2nc3ncnc(Nc4ccc(CCN5CCOCC5)cc4)c3s2)cc1 [Cpd 85, 4-[7-(4-(morpholin-4-yl)ethyl-phenylamino)-thiazolo[4,5-d]pyrimidin-2-ylamino]-benzenesulfonamide]	10100	–
NS(=O)(=O)c1ccc(Nc2nc3ncnc(Nc4ccc(N5CCOCC5)cc4)c3s2)cc1 [Cpd 86, 4-[7-(4-(morpholin-4-yl)-phenylamino)-thiazolo[4,5-d]pyrimidin-2-ylamino]-benzenesulfonamide]	17900	–
COc1ccc(Nc2ncnc3nc(Nc4ccc(S(N)(=O)=O)cc4)sc23)cc1CN1CCOCC1 [Cpd 87, 4-[7-(4-methoxy-3-(morpholin-4-yl)methyl-phenylamino)-thiazolo[4,5-d]pyrimidin-2-ylamino]-benzenesulfonamide]	–	inhibition at 2 µM (EGFR; test concentration of 2 μM, compounds without an IC50, read-out: EGFR percent inhibition): 13%
Fc1ccc(Nc2ncnc3nc(Nc4ccccc4)sc23)cc1Cl [Cpd 88, N^7-(3-chloro-4-fluoro-phenyl)-N^2-phenyl-thiazolo[4,5-d]pyrimidine-2,7-diamine]	59.3	–
Clc1cccc(Nc2ncnc3nc(Nc4ccccc4)sc23)c1 [Cpd 89, N^7-(3-chloro-phenyl)-N^2-phenyl-thiazolo[4,5-d]pyrirnidine-2,7-diamine]	27.1	–
Brc1cccc(Nc2ncnc3nc(Nc4ccccc4)sc23)c1 [Cpd 90, N^7-(3-bromo-phenyl)-N^2-phenyl-thiazolo[4,5-d]pyrimidine-2,7-diamine]	16.5	–
Clc1cc(Cl)cc(Nc2ncnc3nc(Nc4ccccc4)sc23)c1 [Cpd 91, N^7-(3,5-dichloro-phenyl)-N^2-phenyl-thiazolo[4,5-d]pyrimidine-2,7-diamine]	733	–
N#Cc1ccc(Nc2nc3ncnc(Nc4ccc(F)c(Cl)c4)c3s2)cc1 [Cpd 92, 4-[7-(3-chloro-4-fluoro-phenylamino)-thiazolo[4,5-d]pyrimidin-2-ylamino]-benzonitrile]	15.4	–
N#Cc1ccc(Nc2nc3ncnc(Nc4cccc(Cl)c4)c3s2)cc1 [Cpd 93, 4-[7-(3-chloro-phenylamino)-thiazolo[4,5-d]pyrimidin-2-ylamino]-benzonitrile]	25.5	–
